Measured values reported in PMC10814857, “Functional Classification and Interaction Selectivity Landscape of the Human SH3 Domain Superfamily” (Cells, 2024).
pKd: −log10 of the molar value. Peptide text beside a SMILES is read from it.

Experiments:
Assay in all cases: Fluorescence polarization SH3 domain-PRP binding
Conditions in all cases: FP, 0.2 µM fluorescein-labeled peptide, SH3 domain 0-200 µM, Tris/HCl pH 7.5, 25 °C, quadratic fit
[1] = molecular target: T1, ABI1 SH3 domain (aa 446-505) (Homo sapiens, UniProt Q8IZP0)
T1 construct: 446-505; GST (N); made in house; host or cells: Escherichia coli CodonPlus, Rosetta, BL21(DE3)
T1 sequence (Q8IZP0 446-505): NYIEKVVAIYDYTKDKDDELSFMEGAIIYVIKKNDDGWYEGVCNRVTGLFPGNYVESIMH
Protocol: (§1) The interaction between fluorescein-labeled proline-rich peptides (0.2 µM) and increasing concentrations of SH3 domains (ranging from 0 to 200 µM) was measured in a buffer (containing 30 mM Tris/HCl (pH 7.5), 5 mM MgCl2, and 3 mM DTT at 25 °C) in a total volume of 200 µL using a Fluoromax 4 fluorimeter in polarization mode and a quartz glass fluorescence cuvette (Hellma Ultra-Micro Cuvette 105.250-QS, Thermo Fisher Scientific, Waltham, MA USA). Excitation was performed at 470 nm and emission was measured at 560 nm. Dissociation constants (Kd) were determined by fitting the concentration-dependent binding curve to a quadratic ligand binding equation.
(§2) Fluorescence polarization measurements were performed to determine the binding affinities of SH3 domain–PRP interaction pairs from the dot blot analysis. SH3 proteins were titrated at increasing concentrations against fluorescent PRPs, which were kept at a constant concentration of 0.2 µM. GRB2-2^W193K, which is defective in the binding of PRPs such as RP1, was used as a negative control as previously described. […] The resulting data (Figure S6) allowed the evaluation of equilibrium dissociation constants (Kd) for 45 interactions between the SH3 domains and the PRPs (Figure 2B; Table S6).
(§3) Figure S6. Interactions of the SH3 domains with fluorescent PRPs measured by fluorescence polarization.
(§4) Fluorescent peptides (0.2 µM) were titrated with increasing concentrations of the corresponding SH3 domains.
(§5) GRB2-2W193K, defective in the binding of PRPs such as RP1, was used as a negative control as previously described. The x-axis represents SH3 domain concentrations as GST fusion proteins in µM, while the y-axis represents fluorescence polarization. The equilibrium dissociation constants (Kd) for the respective measurements were determined by fitting the titration curves to a quadratic ligand-binding equation (solid lines). All Kd values are […]
(§6) Error bars are derived from the fitting errors.
(§7) (1 picture or pasted object on this page, not shown here)

[2] = molecular target: T2, ABL2 SH3 domain (aa 107-167) (Homo sapiens, UniProt P42684)
T2 construct: 107-167; GST (N); made in house; host or cells: Escherichia coli CodonPlus, Rosetta, BL21(DE3)
T2 sequence (P42684 107-167): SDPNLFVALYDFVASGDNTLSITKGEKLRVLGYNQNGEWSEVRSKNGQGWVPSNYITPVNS
Protocol: as §1, §2, §3, §4, §5, §6, §7

[3] = molecular target: T3, ARHGAP12 SH3 domain (aa 12-74) (Homo sapiens, UniProt Q8IWW6)
T3 construct: 12-74; GST (N); made in house; host or cells: Escherichia coli CodonPlus, Rosetta, BL21(DE3)
T3 sequence (Q8IWW6 12-74): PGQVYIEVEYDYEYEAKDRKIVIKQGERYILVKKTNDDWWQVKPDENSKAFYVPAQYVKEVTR
Protocol: as §1, §2, §3, §4, §5, §6, §7

[4] = molecular target: T4, ARHGEF30 (OBSCN) SH3 domain (aa 5600-5667) (Homo sapiens, UniProt Q5VST9)
T4 construct: 5600-5667; GST (N); made in house; host or cells: Escherichia coli CodonPlus, Rosetta, BL21(DE3)
T4 sequence (Q5VST9 5600-5667): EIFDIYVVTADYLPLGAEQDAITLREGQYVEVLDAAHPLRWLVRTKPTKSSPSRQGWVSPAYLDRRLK
Protocol: as §1, §2, §3, §4, §5, §6, §7

[5] = molecular target: T5, BIN1 SH3 domain (aa 520-593) (Homo sapiens, UniProt O00499)
T5 construct: 520-593; GST (N); made in house; host or cells: Escherichia coli CodonPlus, Rosetta, BL21(DE3)
T5 sequence (O00499 520-593): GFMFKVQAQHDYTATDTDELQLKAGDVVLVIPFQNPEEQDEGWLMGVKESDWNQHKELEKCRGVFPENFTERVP
Protocol: as §1, §2, §3, §4, §5, §6, §7

[6] = molecular target: T6, CRK-1 SH3 domain (aa 132-192) (Homo sapiens, UniProt P46108)
T6 construct: 132-192; GST (N); made in house; host or cells: Escherichia coli CodonPlus, Rosetta, BL21(DE3)
T6 sequence (P46108 132-192): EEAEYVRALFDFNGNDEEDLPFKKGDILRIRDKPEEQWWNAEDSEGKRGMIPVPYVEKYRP
Protocol: as §1, §2, §3, §4, §5, §6, §7

[7] = molecular target: T7, DLG2 SH3 domain (aa 536-606) (Homo sapiens, UniProt Q15700)
T7 construct: 536-606; GST (N); made in house; host or cells: Escherichia coli CodonPlus, Rosetta, BL21(DE3)
T7 sequence (Q15700 536-606): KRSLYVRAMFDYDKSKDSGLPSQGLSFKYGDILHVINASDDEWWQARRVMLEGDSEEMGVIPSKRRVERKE
Protocol: as §1, §2, §3, §4, §5, §6, §7

[8] = molecular target: T8, GRB2-1 SH3 domain (aa 1-58) (Homo sapiens, UniProt P62993)
T8 construct: 1-58; GST (N); made in house; host or cells: Escherichia coli CodonPlus, Rosetta, BL21(DE3)
T8 sequence (P62993 1-58): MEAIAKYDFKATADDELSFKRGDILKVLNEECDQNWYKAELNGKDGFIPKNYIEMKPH
Protocol: as §1, §2, §3, §4, §5, §6, §7

[9] = molecular target: T9, GRB2-2 SH3 domain (aa 158-215) (Homo sapiens, UniProt P62993)
T9 construct: 158-215; GST (N); made in house; host or cells: Escherichia coli CodonPlus, Rosetta, BL21(DE3)
T9 sequence (P62993 158-215): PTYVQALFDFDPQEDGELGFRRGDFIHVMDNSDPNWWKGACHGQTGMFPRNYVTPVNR
Protocol: as §1, §2, §3, §4, §5, §6, §7

[10] = molecular target: T10, ITSN1-1 SH3 domain (aa 740-806) (Homo sapiens, UniProt Q15811)
T10 construct: 740-806; GST (N); made in house; host or cells: Escherichia coli CodonPlus, Rosetta, BL21(DE3)
T10 sequence (Q15811 740-806): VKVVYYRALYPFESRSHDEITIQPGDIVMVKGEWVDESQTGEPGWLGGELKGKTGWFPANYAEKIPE
Protocol: as §1, §2, §3, §4, §5, §6, §7

[11] = molecular target: T11, ITSN1-2 SH3 domain (aa 913-971) (Homo sapiens, UniProt Q15811)
T11 construct: 913-971; GST (N); made in house; host or cells: Escherichia coli CodonPlus, Rosetta, BL21(DE3)
T11 sequence (Q15811 913-971): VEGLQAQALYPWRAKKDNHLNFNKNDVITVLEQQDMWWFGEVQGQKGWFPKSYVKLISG
Protocol: as §1, §2, §3, §4, §5, §6, §7

[12] = molecular target: T12, ITSN1-3 SH3 domain (aa 1002-1060) (Homo sapiens, UniProt Q15811)
T12 construct: 1002-1060; GST (N); made in house; host or cells: Escherichia coli CodonPlus, Rosetta, BL21(DE3)
T12 sequence (Q15811 1002-1060): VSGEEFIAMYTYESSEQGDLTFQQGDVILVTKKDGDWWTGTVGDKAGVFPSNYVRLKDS
Protocol: as §1, §2, §3, §4, §5, §6, §7

[13] = molecular target: T13, NPHP1 SH3 domain (Homo sapiens, UniProt O15259)
T13 construct: GST (N); made in house; host or cells: Escherichia coli CodonPlus, Rosetta, BL21(DE3)
T13 sequence (O15259 152-212 limits assumed): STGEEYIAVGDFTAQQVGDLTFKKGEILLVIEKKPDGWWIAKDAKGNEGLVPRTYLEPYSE
Protocol: as §1, §2, §3, §4, §5, §6

pKd [1]	pKd [2]	pKd [3]	pKd [4]	pKd [5]	pKd [6]	pKd [7]	pKd [8]	pKd [9]	pKd [10]	pKd [11]	pKd [12]	pKd [13]	SMILES
< 3.70	< 3.70	< 3.70	< 3.70	< 3.70	< 3.70	< 3.70	< 3.70	< 3.70	< 3.70	< 3.70	< 3.70	< 3.70	CC(C)C[C@H](NC(=O)[C@@H]1CCCN1C(=O)[C@@H](NC(=O)[C@H](CCCNC(=N)N)NC(=O)[C@@H]1CCCN1C(=O)[C@H](CO)NC(=O)[C@H](CC(N)=O)NC(=O)[C@@H]1CCCN1C(=O)[C@H](C)NC(=O)[C@@H](N)CO)[C@@H](C)O)C(=O)N[C@H](C(=O)N1CCC[C@H]1C(=O)N1CCC[C@H]1C(=O)N1CCC[C@H]1C(=O)N[C@@H](C)C(=O)N[C@@H](CO)C(=O)O)[C@@H](C)O [Peptide P1] (H-SAPNSPRTPLTPPPAS-OH)
4.22	< 3.70	< 3.70	< 3.70	< 3.70	< 3.70	< 3.70	< 3.70	< 3.70	< 3.70	< 3.70	< 3.70	< 3.70	CC(C)C[C@H](NC(=O)[C@@H](NC(=O)[C@@H](N)C(C)C)[C@@H](C)O)C(=O)N1CCC[C@H]1C(=O)N[C@@H](Cc1c[nH]cn1)C(=O)NCC(=O)N1CCC[C@H]1C(=O)N[C@@H](CCCNC(=N)N)C(=O)N[C@@H](CO)C(=O)N[C@@H](C)C(=O)O [Peptide P2] (H-VTLPHGPRSA-OH)
< 3.70	< 3.70	4.86	< 3.70	< 3.70	4.89	< 3.70	4.82	4.92	< 3.70	< 3.70	< 3.70	< 3.70	CC[C@H](C)[C@H](NC(=O)[C@H](CCCCN)NC(=O)[C@H](CO)NC(=O)[C@@H]1CCCN1C(=O)[C@H](CO)NC(=O)[C@H](CO)NC(=O)[C@H](CCC(=O)O)NC(=O)[C@H](C)NC(=O)[C@@H]1CCCN1C(=O)[C@H](C)NC(=O)[C@H](CO)NC(=O)[C@H](CCC(=O)O)NC(=O)[C@@H]1CCCN1C(=O)[C@H](CCCNC(=N)N)NC(=O)[C@H](CCCNC(=N)N)NC(=O)[C@H](CCCNC(=N)N)NC(=O)[C@@H]1CCCN1C(=O)[C@@H]1CCCN1C(=O)[C@@H](NC(=O)[C@@H]1CCCN1C(=O)[C@@H]1CCCN1C(=O)[C@@H]1CCCN1C(=O)[C@@H](NC(=O)[C@@H]1CCCN1C(=O)[C@@H](NC(=O)[C@@H](N)CCC(=O)O)C(C)C)C(C)C)C(C)C)C(=O)O [Peptide P3] (H-EVPVPPPVPPRRRPESAPAESSPSKI-OH)
4.61	3.90	< 3.70	< 3.70	< 3.70	< 3.70	< 3.70	4.22	4.70	5.18	< 3.70	< 3.70	< 3.70	CC[C@H](C)[C@H](NC(=O)[C@H](C)NC(=O)[C@@H]1CCCN1C(=O)[C@@H]1CCCN1C(=O)[C@H](CO)NC(=O)[C@H](CC(=O)O)NC(=O)[C@@H](N)CC(C)C)C(=O)N1CCC[C@H]1C(=O)N1CCC[C@H]1C(=O)N[C@@H](CCCNC(=N)N)C(=O)N[C@@H](CCC(N)=O)C(=O)N1CCC[C@H]1C(=O)N[C@H](C(=O)N[C@@H](CO)C(=O)N[C@@H](CCCCN)C(=O)O)[C@@H](C)O [Peptide P4] (H-LDSPPAIPPRQPTSK-OH)
